Converted amounts (≈) assume the structure as drawn.
Conditions: buffer; pH 7.4; 200.0 µM

Row | SMILES | solubility kinetic [mg/mL]
1 | Nc1sc2c(c1C(=O)NC1CC1)CCCC2 | 0.031 (≈ 131 µM)
2 | NC(=O)COC(=O)C1CSC2(c3ccc(F)cc3)CCC(=O)N12 (stereo not given) | 0.0494 (≈ 146 µM)
3 | COCCN(CCOc1cc(C)cc(C)c1)Cc1ccc(Cl)cc1 | 0.0056 (≈ 16.1 µM)
4 | COc1cc(C(=O)Nc2ccc(C)cc2)c2ccccc2n1 | < 0.0003
5 | COc1ccc(/C(C)=N/N2CCOCC2)c(O)c1 | > 0.0375
6 | Cc1ccc(NC(=O)CCCC2CCCCC2)c(O)c1 | < 0.0006
7 | CC(=O)Nc1cccc(CCc2nc3ccccc3[nH]2)c1 | > 0.0419
8 | Cc1ccc(NC(=O)N2CCc3ccccc3C2)c(C)c1 | 0.0054 (≈ 19.3 µM)
9 | CC(C)Oc1cccc(C(=O)C2CCCN(S(C)(=O)=O)C2)c1 (stereo not given) | > 0.0488
10 | N#Cc1cnc(Sc2ccccc2)nc1 | 0.026 (≈ 122 µM)
11 | Cl.O=C(CN1CCCC1)Nc1cccc(Cl)c1 | > 0.0413
12 | O=C(/C=C/c1ccccc1)NCc1ccc2c(c1)OCO2 | 0.0025 (≈ 8.89 µM)
13 | CCn1cc(CCC(=O)NC(C)c2ccccc2)c2ccccc21 (stereo not given) | 0.0074 (≈ 23.1 µM)
14 | O=C(CNS(=O)(=O)c1ccccc1)Nc1cccc([N+](=O)[O-])c1 | 0.0491 (≈ 146 µM)
15 | CN1CCC(=C(c2ccccc2)c2ccc(Br)cc2)CC1.Cl | 0.0531
16 | CC(=O)Nc1cccc(NC(=O)CSc2nnc3ccccn23)c1 | > 0.0512
17 | O=[N+]([O-])c1cc(F)c(N2CCCC2)cc1Br | 0.0016 (≈ 5.53 µM)
18 | COc1ccccc1C(=O)OC1CCCN(C)C1.Cl (stereo not given) | > 0.0429
19 | Nc1ccc(CCN2CCN(c3cccc(C(F)(F)F)c3)CC2)cc1 | > 0.0524
20 | CCC1(c2ccc(F)cc2)NC(=O)N(CC(=O)Nc2ccc3c(c2)OCCO3)C1=O (stereo not given) | 0.016 (≈ 38.7 µM)
21 | O=C(CN1C(=O)NC(c2ccc(F)cc2)C1=O)NC1CCCCC1 (stereo not given) | > 0.05
22 | O=C(Nc1cccc(S(=O)(=O)Nc2ccc(SC(F)F)cc2)c1)C1CCC1 | 0.0348 (≈ 84.4 µM)
23 | CCOCCCNCc1cc(Cl)cc(Cl)c1OCC.Cl | 0.044
24 | Cc1ccc(Cl)c(NC(=O)CN2CCNC(=O)C2)c1Cl | > 0.0474

Row | SMILES | solubility kinetic [mg/mL]
25 | COc1ccccc1OCC(=O)O/N=C(\N)c1ccccn1 | > 0.0452
26 | O=C(Cc1ccccc1)NNC(=S)NC(=O)c1cccnc1 | > 0.0472
27 | Cc1ccc(S(=O)(=O)N2CCOCC2)cc1NC(=O)COC(=O)c1ccc(Cl)nc1 | > 0.0681
28 | CC1(C)C2SCC(=O)N2CCN1CC(=O)NN (stereo not given) | > 0.0388
29 | CCOc1ccc(C(C)=O)cc1CN1C(=O)NC(C)(C2CC2)C1=O (stereo not given) | 0.0413 (≈ 125 µM)
30 | COc1ccc(NC(=O)c2ccc(S(=O)(=O)N3CCOCC3)o2)cc1 | 0.0107 (≈ 29.2 µM)
31 | O=C1CSC(=Nc2cccc(C(=O)O)c2)N1 | > 0.0354
32 | CC1(C)CC(=O)c2cc(NC(=O)c3ccc(F)cc3)c(=O)oc2C1 | 0.002 (≈ 6.07 µM)
33 | CCOC(=O)C1=C(COC(=O)c2cccc(Cl)c2)NC(=O)NC1C (stereo not given) | 0.0462 (≈ 131 µM)
34 | CCc1ccc(NC(=O)CCC(=O)c2ccccc2)cc1 | 0.0075 (≈ 26.7 µM)
35 | Nc1cc(N)nc(SCC(=O)NCc2ccco2)n1 | > 0.0419
36 | O=C(CCN1C(=O)c2ccncc2C1=O)Nc1cc(F)ccc1F | 0.0417 (≈ 126 µM)
37 | C1N2CN3CN1CN(C2)C3 | > 0.021
38 | Cc1ccc(NC(=O)Cc2cc(C(=O)O)c3ccccc3n2)c(C)c1 | 0.0025 (≈ 7.48 µM)
39 | COCCN(CC(=O)Nc1cccc(C)c1C)C(=O)C1(c2ccc(Cl)cc2)CCC1 | 0.0338 (≈ 78.8 µM)
40 | O=C(Nc1cccc(F)c1)c1c(O)c2ccccc2[nH]c1=O | < 0.0003
41 | CC(OC(=O)c1cc2ccccc2[nH]1)C(=O)N(C)c1ccccc1 (stereo not given) | 0.0038 (≈ 11.8 µM)
42 | S=C(NCc1ccco1)Nc1ccc(Cl)cn1 | 0.0041 (≈ 15.3 µM)
43 | CCc1ccc(N(CC(=O)N2CCOCC2)S(C)(=O)=O)cc1 | > 0.049
44 | C=CCNC(=O)C1CCN(c2cnccn2)CC1 | > 0.0369
45 | CCC(CCC(=O)Nc1cccc([N+](=O)[O-])c1)C(=O)O (stereo not given) | > 0.042
46 | Brc1ccc(C2NCCS2)cc1 (stereo not given) | 0.0293 (≈ 120 µM)
47 | Cc1ccc(S(=O)(=O)N2CCN(C)CC2)cc1C | 0.0313 (≈ 117 µM)
48 | Cc1ccc(NC(=O)COC(=O)c2ccco2)cc1C | 0.0233 (≈ 85.3 µM)

Row | SMILES | solubility kinetic [mg/mL]
49 | CC(C)c1ccc(NC(=O)Cn2c(=O)oc3ccccc32)cc1 | 0.0021 (≈ 6.77 µM)
50 | O=C(COC(=O)CCc1c[nH]c2ccccc12)Nc1ccccc1 | 0.0045 (≈ 14 µM)
51 | COCc1ccc(C(=O)Nc2ccc(C(=O)O)cc2)o1 | > 0.0413
52 | COc1ccc(CCNC(=O)COC(=O)c2ncc(Cl)c(Cl)c2Cl)cc1OC | > 0.0672
53 | O=C(c1ccsc1)N1CCCC(Nc2ccc(F)c(F)c2)C1 (stereo not given) | 0.0445 (≈ 138 µM)
54 | O=C(COC(=O)c1cccnc1Cl)NC12CC3CC(CC(C3)C1)C2 | 0.0501 (≈ 144 µM)
55 | COc1ccc(N=C(C)c2sc3ccccc3c2O)cc1 | < 0.0006
56 | CC(=O)C1=C(C)NC(=S)NC1c1cc([N+](=O)[O-])ccc1O (stereo not given) | > 0.0461
57 | CCCc1cc(C(=O)Nc2ccc(C#N)cc2)no1 | 0.0024 (≈ 9.4 µM)
58 | NS(=O)(=O)c1ccc(NC(=O)COC(=O)Cc2c[nH]c3ccccc23)cc1 | 0.0378 (≈ 97.6 µM)
59 | Cc1cc(C(=O)COC(=O)c2ccc(NC(=O)CC#N)cc2)c(C)n1-c1ccc(OC(F)F)cc1 | 0.0017 (≈ 3.53 µM)
60 | COc1ccc(OCC(=O)Nc2ccccc2N2CCN(C)CC2)cc1 | 0.0495 (≈ 139 µM)
61 | O=C(O)C1CSC(c2ccc(O)c([N+](=O)[O-])c2)N1 (stereo not given) | > 0.0405
62 | COc1ccc2c(c1)c(C)cc[n+]2Cc1ccccc1.[Cl-] | 0.0319
63 | CCn1cc(S(=O)(=O)N2CCc3ccccc3C2)cn1 | > 0.0437
64 | COc1cccc(NC(=O)N2CCc3ccccc3C2)c1 | > 0.0424
65 | CN(C)CCOC(=O)NC12CC3CC(CC(C3)C1)C2.Cl | > 0.0454
66 | COc1ccc(O)c(/C=N/N2CCOCC2)c1 | > 0.0354
67 | Cc1cccc(NC(=S)NCCc2ccccc2)c1C | 0.0041 (≈ 14.4 µM)
68 | CC1(C)c2ccccc2N2CC(=O)N[C@@]21/C=C/C=C/c1ccccc1 | 0.0009 (≈ 2.72 µM)
69 | CC(=O)Nc1ccc(OCc2cccc3ccccc23)cc1 | < 0.0006
70 | CCC(=O)c1cn(CCOc2ccccc2OC)c2ccccc12 | 0.0022 (≈ 6.8 µM)
71 | CC1CCN(S(=O)(=O)c2cccc(C(=O)Nc3ccccc3)c2)CC1 | 0.0013 (≈ 3.63 µM)
72 | Clc1nssc1=Nc1ccccc1 | 0.0223 (≈ 97.5 µM)

Row | SMILES | solubility kinetic [mg/mL]
73 | C[C@H](N)c1nnc(SCC(N)=O)o1.Cl | > 0.0358
74 | Cc1cccc(C(=O)N/C(=C\c2ccc(C)o2)C(=O)O)c1 | > 0.0428
75 | Cc1cccc(CS(=O)(=O)c2ncc(CO)n2C)c1 | > 0.0421
76 | CCc1ccc(OCc2cnc(Cl)s2)cc1 | < 0.0005
77 | CCN1C(=O)NC(c2ccccc2)(c2ccccc2)C1=O | < 0.0003
78 | COc1ccccc1C(=O)C1CCCN(Cc2cccc3nccnc23)C1 (stereo not given) | 0.0395 (≈ 109 µM)
79 | Cc1cc(NS(=O)(=O)c2ccc(NC(=O)c3ccc([N+](=O)[O-])s3)cc2)nc(C)n1 | > 0.065
80 | CCNC(=S)NCc1ccc(OC)c(OC)c1 | > 0.0382
81 | O=c1c2nccnc2[nH]c(=S)n1Cc1ccccc1Cl | > 0.0457
82 | COc1ccc(C(=O)O)cc1S(=O)(=O)NCc1cccnc1 | > 0.0484
83 | COc1cccc(CC(=O)Nc2ccc(S(=O)(=O)Nc3nccs3)cc2)c1 | > 0.0605
84 | Cc1ccc(C)c(Nc2nc(-c3cccnc3)cs2)c1 | 0.0009 (≈ 3.2 µM)
85 | Fc1ccc(Oc2ccnc(Cl)n2)c(Cl)c1 | 0.0169 (≈ 65.2 µM)
86 | O=C(Nc1ncccc1O)c1ccc2ccccc2c1 | > 0.0396
87 | O=C(NC(=S)N1CCCC1)c1ccc(Cl)cc1 | 0.0354 (≈ 132 µM)
88 | CC(=O)NC(Cc1c[nH]c2ccccc12)C(=O)NCc1ccco1 (stereo not given) | > 0.0488
89 | COC(=O)[C@@H]1CCCN1Cc1nc(Cc2ccc(OC)c(OC)c2)no1 | > 0.0542
90 | Cc1ccc(C(=O)CCC(=O)NC2CCCC(C)C2C)cc1 (stereo not given) | 0.0174 (≈ 57.7 µM)
91 | NC(=O)c1ccccc1OC1CCC1 | > 0.0287
92 | COc1cc2c(cc1OC)C(c1ccccc1)NCC2 (stereo not given) | > 0.0404
93 | CN(CC(=O)NCC1CCCCC1)S(=O)(=O)c1ccc(F)cc1 | 0.0162 (≈ 47.3 µM)
94 | O=S(=O)(NC1=NCCCCC1)c1cc(F)ccc1F | > 0.0432
95 | O=C(CNC(=O)c1ccc(OC(F)F)cc1)NCC1CCCO1 (stereo not given) | > 0.0492
96 | O=C(OCN1C(=O)C(=O)c2ccccc21)c1ccc(Cl)cc1 | 0.044 (≈ 139 µM)

Row | SMILES | solubility kinetic [mg/mL]
97 | CCN(CC)S(=O)(=O)c1ccc2oc(SCC(=O)NC3CC3)nc2c1 | > 0.0575
98 | Cc1cccc(N2CCN(C(=O)NC3CCCCC3)CC2C)c1 (stereo not given) | > 0.0473
99 | Cc1cc(C)cc(NC(=O)CCOc2ccccc2)c1 | 0.0041 (≈ 15.2 µM)
100 | COc1cc(C)c(NC(=O)Cc2ccsc2)cc1OC | 0.0424 (≈ 146 µM)
101 | C=CCNc1nc(S(=O)Cc2ccc(C)cc2)nc2c1CCCC2 (stereo not given) | > 0.0512
102 | O=C(NCCc1c[nH]c2ccccc12)c1ccccc1 | 0.0347 (≈ 131 µM)
103 | O=C(CCCNC(=O)c1ccc(Cl)cc1)NCc1ccc(F)cc1 | 0.0041 (≈ 11.8 µM)
104 | COC(=O)c1ccc(OC(=O)c2cccnc2SC)cc1 | < 0.0006
105 | O=C(Nc1cccc(O)c1)c1cc(-c2ccccc2Cl)on1 | 0.0008 (≈ 2.54 µM)
106 | COc1cccc2cc(C(=O)NCc3ccc(C)cc3)c(=N)oc12 | 0.003 (≈ 9.31 µM)
107 | CS(=O)(=O)N1CCCC(C(=O)c2cccc(Cl)c2)C1 (stereo not given) | > 0.0453
108 | C[C@H](NC(=O)c1ccc(C(C)(C)C)cc1)C(=O)N1CCOCC1 | > 0.0478
109 | CC(=O)Nc1nc(C)cs1 | > 0.0234
110 | CC1(C)CC2=C(CO1)C(=S)NC(c1ccccc1)N2CC1CCCO1 (stereo not given) | 0.0453 (≈ 126 µM)
111 | Cc1ccc(Oc2ncccc2NC(=O)CCCC(=O)O)c2c1CCC2 | > 0.0532
112 | COc1ccc2nc(N(CCN(C)C)C(=O)c3ccc4ccccc4c3)sc2c1.Cl | 0.0249
113 | CC(C)(C)C1COc2ccccc2N1C(=O)c1ccccc1Cl (stereo not given) | < 0.0007
114 | CN(CC(=O)Nc1ccc(Cl)c(C(F)(F)F)c1)C(=O)COC(=O)C1CC2CCCC(C1)C2=O (stereo not given) | 0.0592 (≈ 121 µM)
115 | O=C(O)c1ccc(S(=O)(=O)Nc2ccc3c(c2)OCCO3)cc1 | 0.0415 (≈ 124 µM)
116 | COC(=O)[C@H](C)NC(=O)Nc1cccc(Br)c1 | > 0.0452
117 | COc1ccc(OC)c(NC(=O)COC(=O)CCCN=C2NS(=O)(=O)c3ccccc32)c1 | 0.0064 (≈ 13.9 µM)
118 | CCN1CCCC1CNC(=S)Nc1ccc(C(C)=O)cc1 (stereo not given) | > 0.0458
119 | CN(C(=O)COC(=O)c1ccc2ccccc2n1)c1ccccc1 | > 0.0481
120 | COC(=O)c1[nH]c2cc(OC)ccc2c1N=CN(C)C | 0.0384 (≈ 139 µM)
